Assay results reported in US10307383B2, “Cosmetic composition for preventing or ameliorating hypersensitive skin comprising cedrol or derivatives thereof, or pharmaceutically acceptable salts thereof” (University of Seoul Industry Cooperation Foundation, priority 2017, dated 2019).
≈ marks a conversion by molar mass, not a printed value.

System: IL-17A expression
Assay: IL-17A inhibition assay in IL-17 luciferase-(LUCPorter) stable reporter cell line
Conditions: for Inhibition of IL-17A expression (%) Experiment-1 / Inhibition of IL-17A expression (%) Experiment-2 / Inhibition of IL-17A expression (%) Experiment-3: 6 hours; for expression of IL-17A (luciferase units): control group 2,582 units; for inhibition at 10 µg/mL / inhibition at 100 µg/mL / inhibition at 1000 µg/mL / IC50: Homo sapiens; for inhibition at 10 µg/mL / inhibition at 100 µg/mL / inhibition at 1000 µg/mL: read-out: Average Inhibition (%); for IC50: read-out: IC50 to inhibit the IL-17A expression by 50%

Row | IC50 [µg/mL] | Compound | expression of IL-17A, % by the control (10 μg/ml) [% by the control] | Inhibition of IL-17A expression (%) Experiment-1 (10 μg/ml) [%] | Inhibition of IL-17A expression (%) Experiment-2 (10 μg/ml) [%] | Inhibition of IL-17A expression (%) Experiment-3 (10 μg/ml) [%] | expression of IL-17A (luciferase units) (10 μg/ml) | expression of IL-17A, % by the control (100 μg/ml) [% by the control] | Inhibition of IL-17A expression (%) Experiment-1 (100 μg/ml) [%] | Inhibition of IL-17A expression (%) Experiment-2 (100 μg/ml) [%] | Inhibition of IL-17A expression (%) Experiment-3 (100 μg/ml) [%] | expression of IL-17A (luciferase units) (100 μg/ml) | expression of IL-17A, % by the control (1,000 μg/ml) [% by the control] | Inhibition of IL-17A expression (%) Experiment-1 (1000 μg/ml) [%] | Inhibition of IL-17A expression (%) Experiment-2 (1000 μg/ml) [%] | Inhibition of IL-17A expression (%) Experiment-3 (1000 μg/ml) [%] | expression of IL-17A (luciferase units) (1,000 μg/ml) | inhibition at 10 µg/mL [%] | inhibition at 100 µg/mL [%] | inhibition at 1000 µg/mL [%]
1 | 942 (≈ 4.27 mM) | C[C@@H]1CC[C@H]2C(C)(C)[C@H]3C[C@@]12CC1OC13C (stereo partly drawn) [cedrene epoxide, Cedrene epoxide] | 100 | 11 | 4 | 0 | 2,591±458 units | 88 | 14 | 16 | 12 | 2,267±806 units | 54 | 60 | 56 | 46 | 1,382±87 units | 5 | 14 | 54
2 | 841 (≈ 3.41 mM) | CC(=O)C1=C(C)[C@@H]2C[C@@]3(C1)[C@H](C)CC[C@H]3C2(C)C [methyl cedryl ketone, Methyl cedryl ketone] | 87 | 0 | 1 | 13 | 2,248±194 units | 75 | 12 | 15 | 25 | 1,930±111 units | 34 | 78 | 58 | 66 | 866±106 units | 4.7 | 17.3 | 67.3
3 | 1130 (≈ 4.78 mM) | CO[C@]1(C)CC[C@@]23C[C@@H]1C(C)(C)[C@@H]2CC[C@H]3C [methyl cedryl ether, Methyl cedryl ether] | 96 | −6 | 4 | 4 | 2,479±136 units | 92 | −5 | 5 | 8 | 2,379±206 units | 74 | 48 | 18 | 26 | 1,921±239 units | 0.7 | 2.7 | 30.7
